Measured values as given in patent US11434205B2, “Substituted imidazole carboxylate derivatives and the use thereof” (priority 2018, dated 2022).
Read-outs that look alike come from different tables or passages of the source.

Legend:
[1] = test system: rats; test: Loss of righting reflexes (LORR) assay in rats, ED50 by up and down method; format: in vivo, rat; details: Rattus norvegicus, tail vein, class symbols
Method in brief: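 Adult male Sprague-Dawley rats (250-300 g) dosed i.v. via tail vein at 0.1 mL/s. Anesthesia scored as loss of righting reflex lasting >30 s; ED50 derived by up-and-down method.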

[2] = test system: rats
Method: Adult male Sprague-Dawley rats (250-300 g) were selected for the experiment. […] The anesthesia effects of the compounds were assessed in rats using a LORR assay and a period >30 s was considered as an indicator of general anesthesia. Then the up and down method was used to determine 50% effective dose (ED50). The drugs were administered through the tail vein of rats in a volume of 0.6 mL and at a rate of 0.1 mL/s.

[3] = test system: rats; test: Pharmacological characteristics at equivalent doses (2×ED50) in rats; details: 2×ED50, tail vein; for Adverse reactions: Red urine (incidence): DMSO solution (DMSO alone 10/10); for Onset time: time of LORR
Method in brief: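 Adult male Sprague-Dawley rats (250-300 g, n=8) received each drug at twice its ED50 via tail vein (0.6 mL at 0.1 mL/s). Onset of anesthesia taken as time to LORR.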

[4] = test system: secretion of corticosterone, H295R cell line; test: cells; format: cell-based; details: for EC50: Homo sapiens, NCI-H295R, read-out: EC50 (Corticosterone)
Method: (§1) The Effects of the Compounds on Adrenocortical Function In Vitro Test
(§2) Then secretion of the cortisol and corticosterone in the supernatant, was measured using HPLC-MS/MS method to determine whether the compounds of the present invention had adrenotoxic potential.

[5] = test system: secretion of cortisol, H295R cell line; test: cells; format: cell-based; details: for EC50: Homo sapiens, NCI-H295R, read-out: EC50 (Cortisol)
Method: as §1, §2

[6] = test system: rats; format: in vivo, rat; details: rats of the MAP/HR figures, 2×ED50, tail vein; same value in min
Method in brief: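 Rats implanted with telemetry (left ventricular and abdominal aortic catheters, ECG leads) at least one week before recording; compounds given via lateral tail-vein catheter. MAP and HR sampled every 15 s for 30 min before and after dosing to judge hemodynamic stability.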

[7] = test system: rats; details: continuous tail vein infusion at 2×MIR, LORR maintained 1 hour
Method: Pharmacological Effects of the Compounds on Continuous Infusion in Rats
Adult male Sprague-Dawley rats with body weight ranging from 250 to 300 gm were selected for continuous infusion test. […] Time to recovery of righting reflex from stopping infusion, and time to fully awake from stopping infusion were recorded.

[8] = test system: rats; format: in vivo, rat; details: rats of the MAP/HR figures, 2×ED50, tail vein
[9] = H295R cell line, 0.1-10000 nM, HPLC-MS/MS, Table D3

Compound	ED50 [1] [mg/kg]	Approximate therapeutic index [2]	Minimal lethal dose [2] [mg/kg]	Righting reflex duration [3] [min]	Adverse reactions: Red urine (incidence) [3]	Onset time [3] [min]	EC50 [4] [µM]	EC50 [5] [µM]	recovery time of the test animals' righting reflex [6] [min]	recovery time of the test animals' righting reflex [8] [s]	Corticosterone as an indicator to determine the presence of inhibition [4, 9]	Cortisol as an indicator to determine the presence of inhibition [5, 9]	Onset time ([7]; Table D4) [min]	Recovery time after stopping infusion ([7]; Table D4) [min]	Types and incidence of adverse reactions ([7]; Table D4)	also measured
CSCCOC(=O)c1cncn1[C@H](C)c1ccccc1 [Compound C27]	0.5 to 1	>11	>9	3.06 ± 1.50	Red urine (8/8)	0.12 ± 0.07	> 1	> 1	3.1	186						Corticosterone as an indicator to determine the presence of inhibition ([4]; H295R, Table C3): 0; Cortisol as an indicator to determine the presence of inhibition ([5]; H295R, Table C3): 0; Onset time ([7]; Table C4): 3 to 4 min; Recovery time after stopping infusion ([7]; Table C4): 10 to 11 min; Types and incidence of adverse reactions ([7]; Table C4): Tremor (2/6)
C=C=CC1(OC(=O)c2cncn2[C@H](C)c2ccccc2)CCC1 [Compound D13]	0.01 to 0.1	>12	>6	5.09 ± 1.89	Red urine (8/8)	0.25 ± 0.06	> 10	> 10	1.82	109	0	0	2 to 3	13 to 22	Tremor (4/6)	
C#CC(C)OC(=O)c1cncn1[C@H](C)c1ccccc1 (stereo partly drawn) [Compound D14]	0.1 to 0.5	>13	>3	2.09 ± 1.08	Red urine (8/8)	0.24 ± 0.09	> 10	> 10	3.5	210	0	0	2 to 3	11 to 14	Tremor (5/6)	
C#CC(C)(C)OC(=O)c1cncn1[C@H](C)c1ccccc1 [Compound D15]	0.1 to 0.5	>10	>4	2.25 ± 0.79	(7/8)	0.21 ± 0.10	> 10	> 10	3.75	225	0	0	2 to 3	10 to 11	Tremor (3/6)	Adverse reactions: Tremor (incidence) ([3]; animals affected/animals): Tremor (2/8), Red urine
CC#CCOC(=O)c1cncn1[C@H](C)c1ccccc1 [Compound D18]	0.1 to 0.5	>12	>3	1.88 ± 0.95	urine (8/8)	0.22 ± 0.11	> 10	> 10	5.28	317	0	0	3 to 4	11 to 13	Convulsions (1/6), Tremor (4/6)	Adverse reactions: Convulsions (incidence) [3]: Convulsions (1/8), Red
C=C=CC1(OC(=O)c2cncn2[C@H](C)c2ccccc2)COC1 [Compound D21]	0.01 to 0.1	>16	>1	1.93 ± 0.95	Red urine (8/8)	0.15 ± 0.05	> 1	> 1	6.0	360	0	0	2 to 3	8 to 9	Tremor (4/6), Myoclonus (1/6)	Adverse reactions: Hindlimb rigidity (incidence) [3]: Hindlimb rigidity (2/8),
